Data as given in ChEMBL document CHEMBL4177678, “Design, synthesis and in vitro anti-tuberculosis activity of benzo[6,7]cyclohepta[1,2-b]pyridine-1,2,3-triazole derivatives” (Bioorg Med Chem Lett, 2017).
Values after ≈ are worked out from the molar mass of the structure shown.

Each molecule was assayed on Mycobacterium tuberculosis (assay: Antitubercular activity against Mycobacterium tuberculosis H37Rv ATCC 27294 after 28 days by two-fold serial dilution method). Conditions: H37Rv ATCC 27294, 672 h.
Type: functional
`Cc1cc2c(cc1C)-c1nc(C)c(Cn3cc(-c4cccnc4)nn3)cc1CCC2` gave an MIC of 6.25 µg/mL (≈ 15.8 µM). Molecule `Cc1nc2c(cc1Cn1cc(-c3ccccn3)nn1)CCCc1ccccc1-2` has an MIC of 12.5 µg/mL (≈ 34 µM). With `Cc1cc2c(cc1C)-c1nc(C)c(Cn3cc(-c4ccccc4)nn3)cc1CCC2` the MIC was 25 µg/mL (≈ 63.4 µM). `Cc1cc2c(cc1C)-c1nc(C)c(Cn3cc(-c4ccccn4)nn3)cc1CCC2` was tested, and the MIC was 25 µg/mL (≈ 63.2 µM). For `CCCCCc1ccc(-c2cn(Cc3cc4c(nc3C)-c3cc(C)c(C)cc3CCC4)nn2)cc1`, the MIC was greater than 25 µg/mL. In the case of `CCCCCCc1cn(Cc2cc3c(nc2C)-c2cc(C)c(C)cc2CCC3)nn1`, the MIC is reported as 12.5 µg/mL (≈ 31 µM). Work on `Cc1nc2c(cc1Cn1cc(-c3ccccc3)nn1)CCCc1ccccc1-2` yielded an MIC of 25 µg/mL (≈ 68.2 µM). `COc1ccc2cc(-c3cn(Cc4cc5c(nc4C)-c4cc(C)c(C)cc4CCC5)nn3)ccc2c1` was tested, and the MIC was 25 µg/mL (≈ 52.7 µM). For `COc1ccc2cc(-c3cn(Cc4cc5c(nc4C)-c4ccccc4CCC5)nn3)ccc2c1`, the MIC was 25 µg/mL (≈ 56 µM). `Cc1cc2c(cc1C)-c1nc(C)c(Cn3cc(-c4ccsc4)nn3)cc1CCC2` gave an MIC of 12.5 µg/mL (≈ 31.2 µM). For `COc1cccc(-c2cn(Cc3cc4c(nc3C)-c3cc(C)c(C)cc3CCC4)nn2)c1`, the MIC was 25 µg/mL (≈ 58.9 µM). `Cc1ccc(-c2cn(Cc3cc4c(nc3C)-c3ccccc3CCC4)nn2)cc1` showed an MIC of 12.5 µg/mL (≈ 32.9 µM). `CCCCCCc1cn(Cc2cc3c(nc2C)-c2ccccc2CCC3)nn1` gave an MIC of 1.56 µg/mL (≈ 4.17 µM). `Cc1cc2c(cc1C)-c1nc(C)c(Cn3cc(-c4cc5ccccc5c5ccccc45)nn3)cc1CCC2` gave an MIC of 1.56 µg/mL (≈ 3.15 µM). With `Cc1nc2c(cc1Cn1cc(-c3cccnc3)nn1)CCCc1ccccc1-2` the MIC was 6.25 µg/mL (≈ 17 µM). `Cc1nc2c(cc1Cn1cc(-c3cc4ccccc4c4ccccc34)nn1)CCCc1ccccc1-2` showed an MIC greater than 25 µg/mL. For `COc1cccc(-c2cn(Cc3cc4c(nc3C)-c3ccccc3CCC4)nn2)c1`, the MIC was greater than 25 µg/mL. Work on `Cc1nc2c(cc1Cn1cc(-c3ccsc3)nn1)CCCc1ccccc1-2` yielded an MIC of 12.5 µg/mL (≈ 33.6 µM). Molecule `CCCCCc1ccc(-c2cn(Cc3cc4c(nc3C)-c3ccccc3CCC4)nn2)cc1` has an MIC of 12.5 µg/mL (≈ 28.6 µM). Molecule `Cc1ccc(-c2cn(Cc3cc4c(nc3C)-c3cc(C)c(C)cc3CCC4)nn2)cc1` has an MIC of 12.5 µg/mL (≈ 30.6 µM). With `CC[C@@H](CO)NCCN[C@@H](CC)CO` [ETHAMBUTOL] the MIC was 3.13 µg/mL (≈ 15.3 µM). `NNC(=O)c1ccncc1` [ISONIAZID] showed an MIC of 0.1 µg/mL (≈ 0.729 µM). With `CO[C@H]1/C=C/O[C@@]2(C)Oc3c(C)c(O)c4c(O)c(c(/C=N/N5CCN(C)CC5)c(O)c4c3C2=O)NC(=O)/C(C)=C\C=C\[C@H](C)[C@H](O)[C@@H](C)[C@@H](O)[C@@H](C)[C@H](OC(C)=O)[C@@H]1C` [RIFAMPIN] the MIC was 0.2 µg/mL (≈ 0.243 µM).

The molecules below were run on HEK-293T (assay: Cytotoxicity against human HEK293T cells assessed as reduction in cell viability at 50 ug/ml after 24 hrs by MTT assay). Conditions: not given.
Type: cell-based
For `CCCCCCc1cn(Cc2cc3c(nc2C)-c2ccccc2CCC3)nn1`, the Activity was “Non-Toxic”. In the case of `Cc1cc2c(cc1C)-c1nc(C)c(Cn3cc(-c4cc5ccccc5c5ccccc45)nn3)cc1CCC2`, the Activity is reported as “Non-Toxic”.
